Source: patent publication US12023319B2, “Carboxylic acid aromatic amides” (priority 2016, dated 2024)

Tests used:
Male Sprague Dawley rats = experiment: Rat CFA in vivo model (mechanical hyperalgesia, paw withdrawal threshold); settings: 2 hours post-compound
Protocol: Male Sprague Dawley rats were used. Mechanical hyperalgesia was induced by injecting 25 μL of Complete Freund's Adjuvant (CFA) into the plantar surface of one hind paw. Mechanical hyperalgesia was measured using the Pressure Application Measurement apparatus (Ugo Basile, Gemonio, Italy). Briefly, a linearly increasing pressure was applied to an area of ˜50 mm^2 of the plantar side of the hind paw until a behavioural response (paw withdrawal) was observed or until the pressure reached 1000 gf. The pressure at which the behavioural response occurred was recorded as the “Paw Withdrawal Threshold” (PWT). Both CFA-injected and contralateral PWTs were determined for each rat, in each treatment group and at each time point of the studies. The Compound Examples were administered orally in a vehicle of dimethylsulfoxide (DMSO), Polyethylenglycol (PEG) and 2-hydroxypropyl-beta-cyclodextrin (HPCD) (v/v/v=3:20:77). Rats received a first dose of […] of Compound Example per kg body weight 1 hour before CFA injection and a second dose 24 hours after the CFA injection. Mechanical hyperalgesia testing was performed approximately 2 hours before CFA injection, then 2 and 4 hours after the second dose of Compound Example (i.e. 26 and 28 hours after CFA treatment). Data were expressed as the mean±S.D. Area Under the Curve (AUC) of PWTs (defined in table 3 as “AUC of Paw withdrawal threshold (AUC 0-4 hours) post-vehicle” with respect to vehicle group or “AUC of Paw withdrawal threshold (AUC 0-4 hours) post-drug” with respect to Compound Example). Data were analysed by performing a one-way ANOVA followed by a Dunnett's post hoc test. For p values less than 0.05 the results were deemed to be statistically significant.

[1] = tested on: female Sprague Daley rats; experiment: Isovolumetric bladder contraction model (rat); format: in vivo; settings: single administration 1 mg/kg & 15 mg/kg, compared to vehicle
Excerpt: 11. Isovolumetric Bladder Contraction Model (Rat) The aim of this study was to test the efficacy of Compound Examples on bladder function, in particularly on contraction frequency/intercontraction interval and contraction magnitude/contraction amplitude. The experimental setup for performing the isovolumetric bladder measurements was adapted to a previous descripted protocol (Yoshiyama M, de Groat W C. Am J Physiol Regul Integr Comp Physiol 280: […]-[…], 2001). Strong presence and target induction of BDKRB1 in comparison to BDKRB2 has been verified by gene expression analysis in bladders removed from rats after performance of the isovolumetric bladder contraction model in contrast to bladders of naïve, untreated rats. Immunohistochemistry confirmed the presence of BDKRB1 in bladders of rats after contraction, too. […] At least five cycles of isovolumetric bladder contractions were recorded before the Compound Examples or vehicle alone (PEG400/Water (50/50(v/v))) were administered via the catheter in the Vena jugularis at different dosages. About 2 minutes after compound administration the next nine contraction cycles were recorded. The change in contraction amplitude and intercontraction interval of the recorded bladder pressure and bladder contractions was calculated by comparing the means before and after compound administration using GraphPad Prism 7 program.

## O=C(O)c1cc(NC(=O)C2(c3ccc(C(F)(F)F)cc3F)CC2)ccc1-c1cnn(C2CCC2)c1 [Example 3, 2-(1-Cyclobutyl-1H-pyrazol-4-yl)-5-[({1-[2-fluoro-4-(trifluoromethyl)phenyl]cyclopropyl}carbonyl)amino]benzoic acid]
Male Sprague Dawley rats; 0.75 mg/kg p.o.
  Paw withdrawal threshold 2 hours post-compound: 659 ± 20 gf (ns)
Male Sprague Dawley rats; 3 mg/kg p.o.
  Paw withdrawal threshold 2 hours post-compound: 782 ± 50 gf (****)
Male Sprague Dawley rats; 15 mg/kg p.o.
  Paw withdrawal threshold 2 hours post-compound: 812 ± 44 gf (****)
Male Sprague Dawley rats; 60 mg/kg p.o.
  Paw withdrawal threshold 2 hours post-compound: 885 ± 30 gf (****)
[1]
  intercontraction interval (ICI): significant efficacy on prolonging
  maximal pressure of bladder contractions: remained unchanged
